From US10597388B2, “Pyridazinone herbicides” (FMC CORPORATION, priority 2014, dated 2020)

Key:
Assay type in all cases: in vivo
[1] = system: nightshade (eastern black nightshade, Solanum ptycanthum); test: Test E greenhouse herbicide test, pre- and postemergence; settings: Preemergence
From the text: (§1) Seeds of plant species selected from corn (Zea mays), soybean (Glycine max), velvetleaf (Abutilon theophrasti), lambsquarters (Chenopodium album), wild poinsettia (Euphorbia heterophylla), pigweed, palmer (palmer pigweed, Amaranthus palmeri), waterhemp (common waterhemp, Amaranthus rudis), surinam grass (Brachiaria decumbens), crabgrass, large (large crabgrass, Digitaria sanguinalis), crabgrass, Brazilian (Brazilian crabgrass, Digitaria horizontalis), panicum, fall (fall panicum, Panicum dichotomiflorum), foxtail, giant (giant foxtail, Setaria faberii), foxtail, green (green foxtail, Setaria viridis), goosegrass (Eleusine indica), johnsongrass (Sorghum halepense), ragweed (common ragweed, Ambrosia elatior), barnyardgrass (Echinochloa crus-galli), sandbur (southem sandbur, Cenchrus echinatus), arrowleaf sida (Sida rhombifolia), Italian ryegrass (Lolium multiflorum), dayflower (Virginia (VA) dayflower, Commelina virginica), field bindweed (Convolvulus arvensis), momingglory (Ipomoea coccinea), nightshade (eastern black nightshade, Solanum ptycanthum), kochia (Kochia scoparia), nutsedge, yellow (yellow nutsedge, Cyperus esculentus), horseweed (Conyza canadensis), and beggarticks (hairy beggarticks, Bidens pilosa), were planted into a silt loam soil and treated preemergence with test chemicals formulated in a non-phytotoxic solvent mixture which included a surfactant.
(§2) At the same time, plants from these crop and weed species and also waterhemp_RES1, (ALS & Triazine resistant common waterhemp, Amaranthus rudis), and waterhemp_RES2, (ALS & HPPD resistant common waterhemp, Amaranthus rudis) were planted in pots containing Redi-Earth® planting medium (Scotts Company, 14111 Scottslawn Road, Marysville, Ohio 43041) comprising spaghnum peat moss, vermiculite, wetting agent and starter nutrients were treated with postemergence applications of test chemicals formulated in the same manner. Plants ranged in height from 2 to 18 cm for postemergence treatments (1- to 4-leaf stage). Treated plants and controls were maintained in a greenhouse for 14 to 21 d, after which time all species were compared to controls and visually evaluated. Plant response ratings, summarized in Table E, are based on a scale of 0 to 100 where 0 is no effect and 100 is complete control. A dash (-) response means no test result.

[2] = system: arrowleaf sida (Sida rhombifolia); test: as above
From the text: as §1, §2

[3] = system: lambsquarters (Chenopodium album); test: as above; settings: Preemergence
From the text: as §1, §2

[4] = system: soybean (Glycine max); test: as above
From the text: as §1, §2

[5] = system: sandbur (southem sandbur, Cenchrus echinatus); test: as above
From the text: as §1, §2

[6] = system: dayflower (Virginia (VA) dayflower, Commelina virginica); test: as above
From the text: as §1, §2

[7] = system: johnsongrass (Sorghum halepense); test: as above; settings: Preemergence
From the text: as §1, §2

[8] = system: surinam grass (Brachiaria decumbens); test: as above; settings: Preemergence
From the text: as §1, §2

[9] = system: barley, winter (winter barley, Hordeum vulgare); test: Test D controlled growth environment herbicide test, pre- and postemergence
Procedure, shortened: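 Pre-emergence: seeds sown in silt loam soil were sprayed with compound in a non-phytotoxic solvent mix containing surfactant. Post-emergence: plants at 2 to 18 cm (1- to 4-leaf stage) in peat moss/vermiculite medium got the same formulation. Visual 0–100 rating versus controls after 14 to 21 d.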

[10] = system: waterhemp_RES1 (ALS & Triazine resistant common waterhemp, Amaranthus rudis); test: Test E greenhouse herbicide test, postemergence
Procedure: as §2

[11] = system: waterhemp_RES2 (ALS & HPPD resistant common waterhemp, Amaranthus rudis); test: Test E greenhouse herbicide test, postemergence
Procedure: as §2

[12] = 62 g ai/ha, scale 0 to 100 (0 no effect, 100 complete control)
[13] = 125 g ai/ha, scale 0 to 100 (0 no effect, 100 complete control)
[14] = 31 g ai/ha, scale 0 to 100, 0 no effect, 100 complete control
[15] = 250 g ai/ha, visual, scale 0 no effect to 100 complete control
[16] = 62 g ai/ha, Preemergence, scale 0 to 100 (0 no effect, 100 complete control)
[17] = Preemergence, 31 g ai/ha, scale 0 to 100, 0 no effect, 100 complete control
[18] = Preemergence, 125 g ai/ha, visual, scale 0 no effect to 100 complete control
[19] = Preemergence, 250 g ai/ha, visual, scale 0 no effect to 100 complete control
[20] = 125 g ai/ha, visual, scale 0 no effect to 100 complete control
[21] = 125 g ai/ha, Preemergence, scale 0 to 100 (0 no effect, 100 complete control)
[22] = Postemergence, 31 g ai/ha, scale 0 to 100 (0 no effect, 100 complete control)
[23] = Postemergence, 125 g ai/ha, visual rating on scale 0 (no effect) to 100 (complete control), 14 to 21 d
[24] = Postemergence, 250 g ai/ha, scale 0 to 100 (0 no effect, 100 complete control)
[25] = Preemergence, 62 g ai/ha, scale 0 to 100 (0 no effect, 100 complete control)
[26] = Preemergence, 125 g ai/ha, scale 0 to 100 (0 no effect, 100 complete control)
[27] = Preemergence, 250 g ai/ha, scale 0 to 100 (0 no effect, 100 complete control)
[28] = postemergence, 62 g ai/ha, scale 0 to 100, 0 no effect, 100 complete control
[29] = 62 g ai/ha, Postemergence, scale 0 to 100 (0 no effect, 100 complete control)
[30] = 125 g ai/ha, Postemergence, scale 0 to 100 (0 no effect, 100 complete control)
[31] = 250 g ai/ha, Postemergence, scale 0 to 100 (0 no effect, 100 complete control)
[32] = Postemergence, 31 g ai/ha, visual, scale 0 no effect to 100 complete control
[33] = 31 g ai/ha, visual, scale 0 no effect to 100 complete control
[34] = 250 g ai/ha, scale 0 to 100 (0 no effect, 100 complete control)

Question: What does the source list for `CC(=O)Oc1c(C)nn(C)c(=O)c1-c1c(C)sc2c(C)cc(C)cc12` [Compound 27]?
Answer: Plant response rating, Nightshade [1, 12]: 100; Plant response rating, Nightshade [1, 13]: 95; Plant response rating, Nightshade [1, 14]: 90; Plant response rating, Nightshade [1, 15]: 98; Plant response rating, Arrowleaf Sida [2, 16]: 65; Plant response rating, Arrowleaf Sida [2, 17]: 40; Plant response rating, Arrowleaf Sida [2, 18]: 75; Plant response rating, Arrowleaf Sida [2, 19]: 35; Plant response rating, Lambsquarters [3, 12]: 100; Plant response rating, Lambsquarters [3, 14]: 100; Plant response rating, Lambsquarters [3, 20]: 100; Plant response rating, Lambsquarters [3, 15]: 100; Plant response rating, Soybean [4, 16]: 0; Plant response rating, Soybean [4, 21]: 0; Plant response rating, Soybean [4, 17]: 0; Plant response rating, Soybean [4, 19]: 0; Plant response rating, Sandbur [5, 16]: 40; Plant response rating, Sandbur [5, 21]: 90; Plant response rating, Sandbur [5, 17]: 30; Plant response rating, Sandbur [5, 19]: 90; Plant response rating, Dayflower, VA [6, 16]: 10; Plant response rating, Dayflower, VA [6, 17]: 0; Plant response rating, Dayflower, VA [6, 18]: 30; Plant response rating, Dayflower, VA [6, 19]: 65; Plant response rating, Johnsongrass [7, 12]: 75; Plant response rating, Johnsongrass [7, 14]: 70; Plant response rating, Johnsongrass [7, 20]: 75; Plant response rating, Johnsongrass [7, 15]: 70; Plant response rating, Surinam Grass [8, 12]: 95; Plant response rating, Surinam Grass [8, 13]: 100; Plant response rating, Surinam Grass [8, 14]: 85; Plant response rating, Surinam Grass [8, 15]: 100; Plant response rating, Barley, Winter [9, 22]: 0; Plant response rating, Barley, Winter [9, 23]: 5; Plant response rating, Barley, Winter [9, 24]: 5; Plant response rating (scale of 0 to 100), Barley, Winter ([9]; Preemergence, 31 g ai/ha): 0; Plant response rating, Barley, Winter [9, 25]: 0; Plant response rating, Barley, Winter [9, 26]: 10; Barley, Winter plant response rating [9, 27]: 15; Plant response rating, Barley, Winter [9, 28]: 0

Question: `CCC(=O)Oc1c(C)nn(C)c(=O)c1-c1c(C)sc2ccc(C)cc12` [Compound 42] was tested. Which “Plant response rating, Arrowleaf Sida” value [2, 29] did it give?
Answer: 60

Question: And the “Plant response rating, Arrowleaf Sida” value [2, 30]?
Answer: 70

Question: And the “Plant response rating, Arrowleaf Sida” value [2, 31]?
Answer: 80

Question: And the “Plant response rating, Arrowleaf Sida” value [2, 32]?
Answer: 20

Question: And the “Plant response rating, Soybean” value [4, 29]?
Answer: 20

Question: What about the “Plant response rating, Soybean” value [4, 30] of the same molecule?
Answer: 30

Question: What about the “Plant response rating, Soybean” value [4, 31] of the same molecule?
Answer: 50

Question: And the “Plant response rating, Soybean” value [4, 32]?
Answer: 10

Question: What about the “Plant response rating, Sandbur” value [5, 29] of the same molecule?
Answer: 50

Question: And the “Plant response rating, Sandbur” value [5, 30]?
Answer: 60

Question: What about the “Plant response rating, Sandbur” value [5, 31] of the same molecule?
Answer: 60

Question: What about the “Plant response rating, Sandbur” value [5, 32] of the same molecule?
Answer: 35

Question: And the “Plant response rating, Dayflower, VA” value [6, 29]?
Answer: 50

Question: What about the “Plant response rating, Dayflower, VA” value [6, 30] of the same molecule?
Answer: 60

Question: What about the “Plant response rating, Dayflower, VA” value [6, 31] of the same molecule?
Answer: 70

Question: And the “Plant response rating, Dayflower, VA” value [6, 32]?
Answer: 30

Question: And the “Plant response rating, Barley, Winter” value [9, 22]?
Answer: 0

Question: And the “Plant response rating, Barley, Winter” value [9, 23]?
Answer: 0

Question: What about the “Plant response rating, Barley, Winter” value [9, 24] of the same molecule?
Answer: 10

Question: And the “Plant response rating (scale of 0 to 100), Barley, Winter” value ([9]; Preemergence, 31 g ai/ha)?
Answer: 0

Question: What about the “Plant response rating, Barley, Winter” value [9, 25] of the same molecule?
Answer: 0

Question: And the “Plant response rating, Barley, Winter” value [9, 26]?
Answer: 5

Question: What about the “Barley, Winter plant response rating” value [9, 27] of the same molecule?
Answer: 15

Question: What about the “Plant response rating, Barley, Winter” value [9, 28] of the same molecule?
Answer: 0

Question: What about the “Plant response rating, Waterhemp_RES1” value [10, 33] of the same molecule?
Answer: 75

Question: And the “Plant response rating, Waterhemp_RES1” value [10, 12]?
Answer: 75

Question: What about the “Plant response rating, Waterhemp_RES1” value [10, 13] of the same molecule?
Answer: 70

Question: What about the “Plant response rating, Waterhemp_RES1” value [10, 34] of the same molecule?
Answer: 98

Question: What about the “Plant response rating, Waterhemp_RES2” value [11, 33] of the same molecule?
Answer: 60

Question: What about the “Plant response rating, Waterhemp_RES2” value [11, 12] of the same molecule?
Answer: 65

Question: What about the “Plant response rating, Waterhemp_RES2” value [11, 13] of the same molecule?
Answer: 70

Question: And the “Plant response rating, Waterhemp_RES2” value [11, 34]?
Answer: 80
